According to patent US20250034216A1, “STEREOSELECTIVE COVALENT LIGANDS FOR ONCOGENIC AND IMMUNOLOGICAL PROTEINS” (The Scripps Research Institute, priority 2021, published 2025):

Legend:
Test in all cases: IA-DTB cysteine engagement
Format in all cases: binding
Conditions in all cases: 22Rv1 cells, 20 μM probe, 1 h, relative to DMSO
RAB40B_C77 = target: T1, RAB40B_C77 (Homo sapiens, UniProt Q12829)
T1 construct: endogenous in cells; host or cells: 22Rv1
T1 sequence (Q12829 1-278): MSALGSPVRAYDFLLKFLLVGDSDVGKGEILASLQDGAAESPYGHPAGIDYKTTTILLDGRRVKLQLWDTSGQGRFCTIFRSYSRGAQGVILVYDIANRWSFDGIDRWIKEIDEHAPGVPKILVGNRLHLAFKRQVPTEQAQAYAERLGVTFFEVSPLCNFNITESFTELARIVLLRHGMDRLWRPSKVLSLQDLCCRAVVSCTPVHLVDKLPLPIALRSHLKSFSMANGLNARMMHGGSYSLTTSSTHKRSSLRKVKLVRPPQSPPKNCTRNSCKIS
How it was run: (§1)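 First, cells are exposed to electrophilic probes in situ. Next, lysates are labeled with IA-DTB (1 h, ambient temperature), reduced, alkylated and trypsin-digested. Then, IA-DTB peptides are enriched on streptavidin, TMT-labeled and analyzed, with ratios taken against DMSO channels.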

RETSAT_C547 = target: T2, RETSAT_C547 (Homo sapiens, UniProt Q6NUM9)
T2 construct: endogenous in cells; host or cells: 22Rv1
T2 sequence (Q6NUM9 19-610): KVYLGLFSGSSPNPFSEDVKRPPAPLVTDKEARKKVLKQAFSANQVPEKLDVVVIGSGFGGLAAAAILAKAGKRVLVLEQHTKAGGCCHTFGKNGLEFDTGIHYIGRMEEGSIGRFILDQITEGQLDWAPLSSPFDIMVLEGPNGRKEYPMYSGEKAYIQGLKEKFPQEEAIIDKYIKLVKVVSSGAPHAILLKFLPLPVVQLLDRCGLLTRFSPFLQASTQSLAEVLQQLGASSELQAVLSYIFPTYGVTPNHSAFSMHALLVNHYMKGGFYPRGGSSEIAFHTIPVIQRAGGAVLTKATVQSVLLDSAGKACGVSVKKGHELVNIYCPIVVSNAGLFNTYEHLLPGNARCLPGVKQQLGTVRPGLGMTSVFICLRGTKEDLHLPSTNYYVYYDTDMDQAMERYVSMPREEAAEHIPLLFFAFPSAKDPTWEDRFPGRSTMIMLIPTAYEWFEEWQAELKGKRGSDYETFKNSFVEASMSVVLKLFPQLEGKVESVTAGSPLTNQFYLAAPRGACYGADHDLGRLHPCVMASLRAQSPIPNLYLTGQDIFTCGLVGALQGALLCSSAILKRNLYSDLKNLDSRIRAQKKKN
How it was run: as §1

SLC25A16_C311 = target: T3, SLC25A16_C311 (Homo sapiens, UniProt P16260)
T3 construct: endogenous in cells; host or cells: 22Rv1
T3 sequence (P16260 1-332): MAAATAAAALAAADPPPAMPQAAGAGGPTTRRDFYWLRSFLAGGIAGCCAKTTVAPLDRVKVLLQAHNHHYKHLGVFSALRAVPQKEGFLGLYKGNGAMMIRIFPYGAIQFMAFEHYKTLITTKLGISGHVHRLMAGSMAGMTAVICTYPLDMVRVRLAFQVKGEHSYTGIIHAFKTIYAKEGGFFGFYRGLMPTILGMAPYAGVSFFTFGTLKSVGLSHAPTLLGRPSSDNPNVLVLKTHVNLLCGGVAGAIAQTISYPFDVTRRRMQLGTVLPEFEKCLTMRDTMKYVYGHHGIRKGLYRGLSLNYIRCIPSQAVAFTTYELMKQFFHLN
How it was run: as §1

| SMILES | % engagement RAB40B_C77 (RAB40B_C77) | % engagement RETSAT_C547 (RETSAT_C547) | % engagement SLC25A16_C311 (SLC25A16_C311) |
| --- | --- | --- | --- |
| C=CC(=O)N1C[C@H](c2ccc(Br)cc2)[C@H]1C(=O)Nc1cccc2cccnc12 [MY-3A, (2S,3S)-1-acryloyl-3-(4-bromophenyl)-N-(quinolin-8-yl)azetidine-2-carboxamide] | −39% | 53.5% | 32% |
| C=CC(=O)N1C[C@@H](c2ccc(Br)cc2)[C@H]1C(=O)Nc1cccc2cccnc12 [MY-1A, (2S,3R)-1-acryloyl-3-(4-bromophenyl)-N-(quinolin-8-yl)azetidine-2-carboxamide] | 100% | 80% | 79% |
| C=CC(=O)N1C[C@H](c2ccc(Br)cc2)[C@@H]1C(=O)Nc1cccc2cccnc12 [MY-1B, (2R,3S)-1-acryloyl-3-(4-bromophenyl)-N-(quinolin-8-yl)azetidine-2-carboxamide] | 100% | 66.75% | 37.5% |
| C=CC(=O)N1C[C@H](c2ccc(Br)cc2)[C@H]1C(=O)Nc1cccc2cccnc12 [MY-3B, (2S,3S)-1-acryloyl-3-(4-bromophenyl)-N-(quinolin-8-yl)azetidine-2-carboxamide] | 12.5% | 71.25% | 38.5% |
